Test results taken from patent US20230113847A1, “[…] IMMUNE RESPONSE WITH CUPROUS COMPLEXES” (C LAB PHARMA INTERNATIONAL, S.A., priority 2020, published 2023).

Assays:
[1] = stated in description, relevance to route of administration
neuromuscular pain = details: Day 28 in comparison to Day 0; subjects with neuromuscular pain; twice daily administration; placebo group showed upward trend
Excerpt: (§1) Dosing Regimen: Each participant was randomly assigned an identifier code and placed in either the Cunermuspir or placebo treatment groups at a 1:1 ratio. Participants were given 2 capsules on Day 0 and instructed to take the contents sublingually with a small meal. Starting on Day 1, participants were instructed to take one capsule orally in the morning with breakfast, and one capsule orally between lunch and dinner, with food, for a total of 2 capsules daily over the course of the study. Participants were instructed to take all capsules with adequate, but not excessive, amounts of liquid.

[2] = tested on: Neutrophil to Lymphocyte Ratio; details: Day 28, twice daily administration
Protocol: (§2) Ethics: This study was reviewed by the Natural Health Products Directorate (NHPD), Health Canada and a research ethics board. This study was conducted in accordance with the principles established in the Declaration of Helsinki and its subsequent amendments. Informed consent was obtained from each subject at the screening visit prior to any study related activities. The clinical trial was conducted at KGK Synergize Inc. (London, ON, Canada).
(§3) Sample Collection: As depicted in FIG. 1, blood was collected from participants on the initial screening (Day −1), the first day of administering the treatment composition (Day 0), and on Day 28. Collected blood was analyzed to determine the complete blood count (CBC), electrolyte composition, and liver enzymes composition according to standardized procedures at LifeLabs (London, ON, Canada).
as §1

Lymphocytes = details: Day 28, twice daily administration; otherwise healthy subjects with chronic pain
Protocol: as §2, §3, §1

Neutrophils = details: Day 28, twice daily administration; otherwise healthy subjects with chronic pain
Protocol: as §2, §3, §1

Row | SMILES | pH of the complex [1] | SQIR scores in Symptom, Impact and Function Domains (neuromuscular pain) | neutrophil to lymphocyte ratio relative to the placebo group [2] | lymphocyte numbers relative to the placebo group (Lymphocytes) | neutrophil numbers relative to the placebo group (Neutrophils)
1 | NCC(=O)[O-].[Cu+] [Copper (I) glycinate, cuprous glycinate] | more neutral pH |  |  |  | 
2 | O=C(O)c1cccnc1.[Cu+] [Cu(I)NA2, cuprous nicotinic acid] | acidic pH | decreased scores | significant decrease | significant increase | significant decrease
